# From publication PMC9732821, “Neurotrophic Activity and Its Modulation by Zinc Ion of a Dimeric Peptide Mimicking the Brain-Derived Neurotrophic Factor N-Terminal Region” (ACS Chemical Neuroscience, 2022)
# System: SH-SY5Y cells
# Assay: MTS cell viability assay, RA-differentiated SH-SY5Y cells
# Assay type: cell-based, human
# Conditions: three days
# Description: one-way ANOVA with Dunnett’s multiple comparison test , # p<0.05 versus BDNF, according to one-way ANOVA with Sidak’s multiple comparison test).
# Figure S 2. MT S assay for BDNF and its mimetic peptides. Cell viability assay of RA - differentiated SH -SY5Y cells treated for three days with 150 ng/ml BDNF of with different concentrations of m-, d- or s-bdnf peptides (M, D and S, respectively). ** p<0.01, *p<0.05, according to one-way ANOVA with Dunnett’s multiple comparison test).
# (1 picture or pasted object on this page, not shown here) […]
# incubated for 3 days in serum-free DMEM-F12 (morphometric ctrl). […]
# SH-SY5Y were seeded at a density of 3.000 cell/well in 96 multiwell and differentiated as describe above. The viability of differentiated cells, in response to the various treatments, was assessed using an MTS assay (CellTiter 96 AQueous One Solution Cell Proliferation Assay kit; Promega) according to the manufacturer’s instructions. The absorbance of formazan at 490 nm was measured in a colorimetric assay with the EnSightTM multimode plate reader (Perkin Elmer). […]
# TrkB phosphorylation was monitored after TrkB-eGFP construct immunoprecipitation, similarly to what previously reported for TrkA phosphorylation 3. […]
substance,measurement,setting,value
"HSDPARRGELSV-NH2 [m-bdnf, linear peptide fragment encompassing the first 12 amino acids of the mature NT N-terminal]",cell viability (toxicity),lower doses of m-bdnf,some toxicity
HSDPARRGELSVC-C-VSLEGRRAPDSH (disulfide) [d-bdnf],cell viability,5–10 μM d-bdnf,no reduced vitality of the culture
